Measured values reported in publication PMC8522962 (Reproductive Toxicology (Elmsford, N.y.), 2021).
“Also recorded” adds a separate entry of the source.

Legend:
[1] = test system: T/Bra::GFP mouse gastruloids; test: Mouse gastruloid assay, T/Bra::GFP reporter line; assay type: cell-based; details: for adverse effects on reporter gene expression (words): mouse system, up to the highest concentration levels
mouse gastruloids = test: Mouse gastruloid assay, both lines or line not specified; assay type: cell-based; details: for mouse Gastruloid LOAEL: lowest observable adverse effect level; for overall outcome in the mouse gastruloid model: summary statements
[2] = test system: differentiation of mouse embryonic stem cells (ES-D3) into beating cardiomyocytes; test: Mouse embryonic stem cell test; assay type: cell-based; details: for mEST ID50: half maximal inhibitory concentration of cardiomyocyte differentiation
hiPSC-derived EBs = test: Human 3D in vitro model, hiPSC-derived embryoid bodies; assay type: cell-based; details: threshold concentration where 20 % of teratogenicity was detected by differential expression
rats = details: read-out: rat in vivo LOAEL Cmax; maximum plasma concentration at LOAEL; cited from earlier work
rabbits = details: cited from earlier work
[3] = EMA ICH S5 (R3) guidelines; cited from earlier work
[4] = test system: RUES2-GLR human gastruloids; test: Human gastruloid assay, RUES2-GLR line; details: for Human Gastruloid LOAEL: lowest observable adverse effect level; for overall outcome in the human gastruloid model: summary statements; for adverse effects on reporter gene expression (words): up to the highest concentration levels
[5] = test system: E14Tg2A mouse gastruloids; test: Mouse gastruloid assay, E14Tg2A line; assay type: cell-based
plasma protein = details: cited from earlier work; for free fractions of unbound compound: human therapeutic concentrations

In the case of `COc1ccccc1Oc1c(NS(=O)(=O)c2ccc(C(C)(C)C)cc2)nc(-c2ncccn2)nc1OCCO` [Bosentan], the “morphology vs controls” value ([1]; 4 μM and 8 μM) was “larger and more elongated than controls”, the “GFP expression” value ([1]; cultured in the presence of bosentan (4-18 μM)) was “robust GFP expression that was localised to the pole of the elongations” and the “size and morphogenesis vs controls” value (mouse gastruloids; 4–18 μM, mouse gastruloids) was “slightly larger than controls, but did not appear to be defective in morphogenesis”. For the same molecule, the “mEST prediction” value [2] was “false negative”, the “mEST ID50” value [2] was 68.2 µM and the “hiPSC- derived EBs TC20” value (hiPSC-derived EBs) was 13 µM. For the same molecule, the Cmax (rats) was 30 µM, the “effects in rabbits in vivo” value (rabbits) was “no effects” and the Teratogenicity classification [3] was “Positive”. For the same molecule, the “germ layer representation and axial elongation” value ([4]; 4 μM) was “maintain representation of all three germ layers and axial elongation morphogenesis”, the “size vs DMSO” value ([4]; 4 μM) was “marginally smaller than DMSO-treated gastruloids” and the “SOX17 expression” value ([4]; 18 μM) was “lose expression of SOX17”. The “human gastruloids showing low levels of SOX17 expression, on average” value ([4]; 18 μM, 72 h, vehicle controls 88 %) was 33%, the “Human Gastruloid LOAEL” value ([4]; 72 h) was 18 µM and the “overall outcome in the human gastruloid model” value [4] was “potentially teratogenic”.

With `CC(C)Cc1ccc(C(C)C(=O)O)cc1` (centres unmarked) [Ibuprofen] the “GFP expression” value ([1]; all ibuprofen treatments tested (63-250 μM)) was “marked increase in GFP expression”, the “growth and morphology vs vehicle-only controls” value (mouse gastruloids; 63−250 μM, 0.12 % DMSO control) was “no consistent effect on growth or morphology” and the “mouse Gastruloid LOAEL” value (mouse gastruloids; 120 h) was 63 µM. For the same molecule, the “mouse Gastruloid LOAEL” value (mouse gastruloids; 120 h, listed as ibuprofen) was 63 µM, the “overall outcome in the mouse gastruloid model” value (mouse gastruloids) was “adverse effects on gene expression” and the “mEST prediction” value [2] was “negative”. For the same molecule, the “hiPSC- derived EBs TC20” value (hiPSC-derived EBs) was 855 µM, the Cmax (rats) was 1600 µM and the “effects in rabbits in vivo” value (rabbits) was “no effects”. For the same molecule, the “SOX2 expression vs vehicle-only controls” value ([4]; 63 μM) was “marginally elevated”, the “size and circularity” value ([4]; 63 μM and 250 μM) was “reduced size and increased circularity” and the “Human Gastruloid LOAEL” value ([4]; 72 h) was 63 µM.

For `CC1(C)S[C@@H]2[C@H](NC(=O)Cc3ccccc3)C(=O)N2[C@H]1C(=O)O` [Penicillin G], the “morphological changes vs control” value ([5]; 63 μM, 1 mM and 2 mM, water control) was “small morphological changes resulting in slightly larger, more elongated or less circular gastruloids”, the “adverse effects on reporter gene expression (words)” value (from here on “adverse effects”) ([1]; listed as Penicillin) was “No observable adverse effects on reporter gene expression” and the “adverse effects” value ([1]; listed as penicillin G) was “did not cause any adverse effects on reporter gene expression”. The “effect on size” value ([4]; 63 μM and 1 mM) was “minimal effects of increased size”, the “adverse effects” value ([4]; human system, listed as Penicillin) was “No observable adverse effects on reporter gene expression” and the “adverse effects” value ([4]; human system, listed as penicillin G) was “did not cause any adverse effects on reporter gene expression”.

For `O=C1NC(=O)C(c2ccccc2)(c2ccccc2)N1` [Phenytoin], the “size and morphology vs vehicle-only controls” value ([5]; 1−20 μM, 0.1 % DMSO control) was “not significantly different compared to the vehicle-only controls in terms of size and morphology”, the “size and circularity” value ([1]; 20 μM) was “significantly smaller and more circular” and the “T/Bra::GFP expression” value ([1]; > 5 μM) was “negatively correlated with increasing concentrations of phenytoin”. The “overall outcome in the mouse gastruloid model” value (mouse gastruloids) was “adverse effects on gene expression”, the “mEST ID50” value [2] was 0.39 µM and the “hiPSC- derived EBs TC20” value (hiPSC-derived EBs) was less than 8 µM. For the same molecule, the Cmax (rats) was 106 µM, the Teratogenicity classification [3] was “Positive” and the plasma protein binding (plasma protein) was 90%. For the same molecule, the “free fractions of unbound compound” value (plasma protein) was 3 to 9 µM, the “area” value ([4]; 20 μM, One-Way ANOVA α = 0.05) was “significantly reduced area” and the “proportions and patterns of gene expression” value ([4]; 1−20 μM) was “maintained proportions and patterns of gene expression that were comparable to controls”. For the same molecule, the “overall outcome in the human gastruloid model” value [4] was “falls below the limit of detectable effect”.

With `CC1=C(/C=C/C(C)=C/C=C/C(C)=C/C(=O)O)C(C)(C)CCC1` [Retinoic Acid, All-trans retinoic acid] the “T/Bra::GFP expression” value ([1]; all ATRA treatments (0.4-100 nM), 120 h) was “apparent loss of T/Bra::GFP expression”, the “effect on axial extension” value (mouse gastruloids; 0.4 nM, 120 h, both lines) was “significant inhibition of axial extension” and the “effect on size and shape” value (mouse gastruloids; 33 nM, 100 nM, 120 h, both lines) was “drastically reduced size, and gastruloids assumed a spherical shape without any axial elongation”. The “dosages likely to be cytotoxic or cytostatic in the mouse system” value (mouse gastruloids; 120 h) was greater than 0.4 nM, the “mouse Gastruloid LOAEL” value (mouse gastruloids; 120 h) was 0.0004 µM and the “overall outcome in the mouse gastruloid model” value (mouse gastruloids) was “similarly teratogenic; also recorded: adverse morphological effects”. For the same molecule, the “mEST ID50” value [2] was 0.0037 µM, the “mEST ID50” value ([2]; listed as ATRA) was 0.003 µM and the Cmax (rats) was 1 µM. For the same molecule, the Teratogenicity classification [3] was “Positive”, the “germ layer representation and axial elongation” value ([4]; 0.4 nM, 72 h) was “maintain an equivalent representation of the three germ layers and underwent partial axial elongation” and the “size and circularity vs controls” value ([4]; 0.4 nM, 72 h) was “significantly smaller and more circular than controls”. The “axial extension and SOX2 expression” value ([4]; 33 nM, 72 h) was “completely inhibited axial extension and promoted the over-expression of SOX2”, the “BRA expression” value ([4]; 33 nM, 72 h, three replicates) was “no detectable BRA expression” and the “human gastruloids expressing SOX17 at low levels, on average” value ([4]; 33 nM, 72 h, DMSO controls 88 %) was 42%. For the same molecule, the “Human Gastruloid LOAEL” value ([4]; 72 h) was 0.0004 µM and the “overall outcome in the human gastruloid model” value [4] was “similarly teratogenic”.

With `O=C1CCC(N2C(=O)c3ccccc3C2=O)C(=O)N1` (centres unmarked) [Thalidomide] the “GFP expression” value ([1]; increasing concentrations (100 μM)) was “reduced GFP expression”, the “size and morphology” value (mouse gastruloids; 0.4−100 μM, both lines) was “not significantly altered in either size or morphology” and the “overall outcome in the mouse gastruloid model” value (mouse gastruloids) was “adverse effects on gene expression”. The “mEST prediction” value [2] was “false negative”, the “mEST inhibition of cardiomyocytes” value ([2]; concentrations up to 2 mM) was “did not show any inhibition of cardiomyocytes” and the “hiPSC- derived EBs TC20” value (hiPSC-derived EBs) was less than 0.1 µM. For the same molecule, the Cmax (rats) was 19 µM, the Teratogenicity classification [3] was “Positive” and the “SOX2 expression” value ([4]; 0.4 μM and 100 μM) was “clearly increased SOX2 expression”. For the same molecule, the “gastruloid size” value ([4]; 0.4 μM and 100 μM) was “significant decreases in gastruloid size”, the “Human Gastruloid LOAEL” value ([4]; 72 h) was 0.4 µM and the “overall outcome in the human gastruloid model” value [4] was “potentially teratogenic”.

In the case of `CCCC(CCC)C(=O)O` [Valproic Acid], the “GFP expression” value ([1]; 4 μM) was “maintained localised GFP expression”, the “size, elongation and GFP expression” value ([1]; concentrations higher than 4 μM) was “smaller gastruloids, impaired elongation and a loss of GFP expression” and the “tolerability” value (mouse gastruloids; 4 μM, mouse gastruloids) was “fairly well tolerated”. For the same molecule, the “toxicity judged from decrease in gastruloid size” value (mouse gastruloids; 1 mM, mouse system) was “seem to induce toxicity”, the “effect on shape and size” value (mouse gastruloids; concentrations higher than 333 μM, mouse gastruloids) was “clearly spherical mouse gastruloids” and the “mouse Gastruloid LOAEL” value (mouse gastruloids; 120 h) was 333 µM. The “overall outcome in the mouse gastruloid model” value (mouse gastruloids) was “similarly teratogenic; also recorded: adverse morphological effects”, the “mEST ID50” value [2] was 589 µM and the “hiPSC- derived EBs TC20” value (hiPSC-derived EBs) was 85 µM. The Cmax (rats) was 1600 µM, the Teratogenicity classification [3] was “Positive” and the plasma protein binding (plasma protein) was no less than 90%. The “free fractions of unbound compound” value (plasma protein) was 0.3−0.5 mM, the “effect on size” value ([4]; 4 μM, human gastruloids) was “decrease in size” and the “tolerability” value ([4]; 4 μM, human gastruloids) was “fairly well tolerated”. The “SOX2 and BRA reporter expression vs 0.2 % DMSO controls” value ([4]; 333 μM) was “very low SOX2 expression and elevated BRA expression”, the “axial elongation morphogenesis” value ([4]; 333 μM) was “failed to undergo axial elongation morphogenesis” and the “toxicity judged from decrease in gastruloid size” value ([4]; 1 mM, human system) was “seem to induce toxicity”. The “Human Gastruloid LOAEL” value ([4]; 72 h) was 333 µM and the “overall outcome in the human gastruloid model” value [4] was “similarly teratogenic”.
